Test results taken from US12655116B2, “Substituted isophthalic acid diamides” (Bayer Aktiengesellschaft, priority 2020, dated 2026).

Key:
ABUTH [1] = experiment: Pre-emergence herbicidal action against ABUTH; type: in vivo, Abutilon theophrasti
Method in brief: (§1)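 Pre-emergence soil-surface spray of formulated compound (WP or EC; 600 to 800 l/ha; 0.2% wetting agent) over seeds sown in sandy loam. After 3 weeks under greenhouse conditions, damage is estimated visually in percent against untreated plants.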

ALOMY [2] = experiment: Pre-emergence herbicidal action against ALOMY; type: in vivo, Alopecurus myosuroides; details: 80 g/ha, pre-emergence, scored visually after 3 weeks vs untreated controls (100% = plants have died, 0% = like control plants); for pest or weed control at 80 g/ha: Alopecurus myosuroides, 504 h
Method in brief: as §1

AMARE [3] = experiment: Pre-emergence herbicidal action against AMARE; type: in vivo, Amaranthus retroflexus; details: for pest or weed control at 20 g/ha / pest or weed control at 80 g/ha: Amaranthus retroflexus, 504 h
Method in brief: as §1

AVEFA = experiment: Pre-emergence herbicidal action against AVEFA; type: in vivo, Avena fatua; details: Avena fatua, 504 h, pre-emergence
Method in brief: as §1

ECHCG [4] = experiment: Pre-emergence herbicidal action against ECHCG; type: in vivo, Echinochloa crus-galli; details: 80 g/ha
Method in brief: as §1

MATIN [5] = experiment: Pre-emergence herbicidal action against MATIN; type: in vivo, Matricaria inodora; details: for pest or weed control at 20 g/ha / pest or weed control at 80 g/ha: Tripleurospermum inodorum, 504 h
Method in brief: as §1

POLCO = experiment: Pre-emergence herbicidal action against POLCO; type: in vivo, Polygonum convolvulus; details: dosage 80 g/ha; for pest or weed control at 80 g/ha: Fallopia convolvulus, 504 h
Text: Seeds of monocotyledonous and dicotyledonous weed plants and crop plants are laid out in sandy loam soil in wood-fiber pots and covered with soil. The compounds of the invention, formulated in the form of wettable powders (WP) or as emulsion concentrates (EC), are then applied to the surface of the covering soil in the form of an aqueous suspension or emulsion at a water application rate equivalent to 600 to 800 l/ha, with addition of 0.2% wetting agent. After the treatment, the pots are placed in a greenhouse and kept under good growth conditions for the trial plants. The damage to the test plants is scored visually after a test period of 3 weeks by comparison with untreated controls (herbicidal activity in percent (%): 100% activity=the plants have died, 0% activity=like control plants). […] The tables below illustrate, in an illustrative manner, the post-emergence herbicidal action of the compounds of the invention, the herbicidal activity being stated in percent.

SETVI [6] = experiment: Pre-emergence herbicidal action against SETVI; type: in vivo, Setaria viridis
Method in brief: as §1

VERPE [7] = experiment: Pre-emergence herbicidal action against VERPE; type: in vivo, Veronica persica; details: for pest or weed control at 80 g/ha: Veronica persica, 504 h
Method in brief: as §1

VIOTR [8] = experiment: Pre-emergence herbicidal action against VIOTR; type: in vivo, Viola tricolor
Method in brief: as §1

ABUTH [9] = experiment: Post-emergence herbicidal action against ABUTH; type: in vivo, Abutilon theophrasti; details: visual assessment about 3 weeks after treatment vs untreated controls; for pest or weed control at 5 g/ha / pest or weed control at 20 g/ha: Abutilon theophrasti, 504 h; for pest or weed control at 5 g/ha: dosage 5 g/ha
Method in brief: (§2)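 Spray, one-leaf stage: WP or EC compound in water, 600–800 l/ha, 0.2% wetting agent. Plants held about 3 weeks in the greenhouse, then visually rated in percent of kill compared with untreated controls.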

ALOMY [10] = experiment: Post-emergence herbicidal action against ALOMY; type: in vivo, Alopecurus myosuroides; details: visual assessment about 3 weeks after treatment vs untreated controls
Method in brief: as §2

AMARE [11] = experiment: Post-emergence herbicidal action against AMARE; type: in vivo, Amaranthus retroflexus; details: 20 g/ha, visual assessment about 3 weeks after treatment, 100% = plants have died, 0% = like control plants; for pest or weed control at 20 g/ha: Amaranthus retroflexus, 504 h
Method in brief: as §2

ECHCG [12] = experiment: Post-emergence herbicidal action against ECHCG; type: in vivo, Echinochloa crus-galli
Method in brief: as §2

MATIN [13] = experiment: Post-emergence herbicidal action against MATIN; type: in vivo, Matricaria inodora; details: Tripleurospermum inodorum, 504 h
Method in brief: as §2

PHBPU = experiment: Post-emergence herbicidal action against PHBPU; type: in vivo, Pharbitis purpurea
Method in brief: as §2

SETVI [14] = experiment: Post-emergence herbicidal action against SETVI; type: in vivo, Setaria viridis
Method in brief: as §2

VERPE [15] = experiment: Post-emergence herbicidal action against VERPE; type: in vivo, Veronica persica
Method in brief: as §2

VIOTR [16] = experiment: Post-emergence herbicidal action against VIOTR; type: in vivo, Viola tricolor
Method in brief: as §2

DIGSA [17] = experiment: Pre-emergence herbicidal action against DIGSA; type: in vivo, Digitaria sanguinalis
Method in brief: as §1

DIGSA [18] = experiment: Post-emergence herbicidal action against DIGSA; type: in vivo, Digitaria sanguinalis; details: 20 g/ha
Method in brief: as §2

[19] = Abutilon theophrasti, 504 h, 80 g/ha, scored visually after 3 weeks vs untreated controls (100% = plants have died, 0% = like control plants)
[20] = 20 g/ha, scored visually after 3 weeks vs untreated controls, 100% = plants have died, 0% = like control plants
[21] = 80 g/ha, scored visually after 3 weeks vs untreated controls, 100% = plants have died, 0% = like control plants
[22] = Setaria viridis, 504 h, dosage 20 g/ha
[23] = Setaria viridis, 504 h, dosage 80 g/ha
[24] = Viola tricolor, 504 h, dosage 80 g/ha
[25] = Alopecurus myosuroides, 504 h, dosage 20 g/ha
[26] = Echinochloa crus-galli, 504 h, dosage 20 g/ha
[27] = Ipomoea purpurea, 504 h, dosage 20 g/ha
[28] = Veronica persica, 504 h, 20 g/ha
[29] = 80 g/ha, scored visually after 3 weeks vs untreated controls (100% = plants have died, 0% = like control plants)

## Cc1c(C(=O)Nc2nnnn2C)ccc(C(F)F)c1C(=O)NC(C)C [Example 1-346]
ABUTH [1]; [19]
  pest or weed control at 80 g/ha: 100%
ABUTH [1]; Abutilon theophrasti, 504 h, dosage 20 g/ha, scored visually after 3 weeks vs untreated controls, 100% = plants have died, 0% = like control plants, read-out: Pre-emergence action against ABUTH (herbicidal activity in percent)
  pest or weed control at 20 g/ha: 90%
ALOMY [2]
  pest or weed control at 80 g/ha: 90%
AMARE [3]; [20]
  pest or weed control at 20 g/ha: 100%
AMARE [3]; [21]
  pest or weed control at 80 g/ha: 100%
AVEFA; 80 g/ha
  pest or weed control at 80 g/ha: 80%
AVEFA; 20 g/ha, scored visually after 3 weeks, 100% = plants have died, 0% = like control plants
  pest or weed control at 20 g/ha: 80%
ECHCG [4]; Echinochloa crus-galli, 504 h
  pest or weed control at 80 g/ha: 90%
MATIN [5]; dosage 20 g/ha
  pest or weed control at 20 g/ha: 90%
MATIN [5]; dosage 80 g/ha
  pest or weed control at 80 g/ha: 100%
POLCO
  pest or weed control at 80 g/ha: 80%
SETVI [6]; [22]
  pest or weed control at 20 g/ha: 100%
SETVI [6]; [23]
  pest or weed control at 80 g/ha: 100%
VERPE [7]; dosage 80 g/ha
  pest or weed control at 80 g/ha: 80%
VIOTR [8]; Viola tricolor, 504 h, dosage 20 g/ha
  pest or weed control at 20 g/ha: 80%
VIOTR [8]; [24]
  pest or weed control at 80 g/ha: 100%
ABUTH [9]
  pest or weed control at 5 g/ha: 80%
ABUTH [9]; dosage 20 g/ha
  pest or weed control at 20 g/ha: 100%
ALOMY [10]; Alopecurus myosuroides, 504 h, dosage 5 g/ha
  pest or weed control at 5 g/ha: 80%
ALOMY [10]; [25]
  pest or weed control at 20 g/ha: 90%
AMARE [11]
  pest or weed control at 20 g/ha: 100%
ECHCG [12]; Echinochloa crus-galli, 504 h, dosage 5 g/ha
  pest or weed control at 5 g/ha: 80%
ECHCG [12]; [26]
  pest or weed control at 20 g/ha: 90%
MATIN [13]; dosage 5 g/ha
  pest or weed control at 5 g/ha: 80%
MATIN [13]; dosage 20 g/ha
  pest or weed control at 20 g/ha: 90%
PHBPU; Ipomoea purpurea, 504 h, dosage 5 g/ha
  pest or weed control at 5 g/ha: 80%
PHBPU; [27]
  pest or weed control at 20 g/ha: 90%
SETVI [14]; Setaria viridis, 504 h, dosage 5 g/ha
  pest or weed control at 5 g/ha: 100%
SETVI [14]; [22]
  pest or weed control at 20 g/ha: 100%
VERPE [15]; Veronica persica, 504 h, 5 g/ha
  pest or weed control at 5 g/ha: 80%
VERPE [15]; [28]
  pest or weed control at 20 g/ha: 80%
VIOTR [16]; Viola tricolor, 504 h, 5 g/ha
  pest or weed control at 5 g/ha: 90%
VIOTR [16]; Viola tricolor, 504 h, 20 g/ha
  pest or weed control at 20 g/ha: 100%

## CNC(=O)c1c(OC)ccc(C(=O)Nc2nnnn2C)c1Cl [Example 1-354]
ABUTH [1]; [19]
  pest or weed control at 80 g/ha: 100%
ALOMY [2]
  pest or weed control at 80 g/ha: 80%
AMARE [3]; [21]
  pest or weed control at 80 g/ha: 100%
MATIN [5]; dosage 20 g/ha
  pest or weed control at 20 g/ha: 80%
MATIN [5]; dosage 80 g/ha
  pest or weed control at 80 g/ha: 80%
POLCO
  pest or weed control at 80 g/ha: 80%
SETVI [6]; [23]
  pest or weed control at 80 g/ha: 90%
ABUTH [9]
  pest or weed control at 5 g/ha: 90%
ABUTH [9]; dosage 20 g/ha
  pest or weed control at 20 g/ha: 100%
ALOMY [10]; [25]
  pest or weed control at 20 g/ha: 80%
AMARE [11]
  pest or weed control at 20 g/ha: 100%
SETVI [14]; [22]
  pest or weed control at 20 g/ha: 100%
VERPE [15]; [28]
  pest or weed control at 20 g/ha: 90%
VIOTR [16]; Viola tricolor, 504 h, 20 g/ha
  pest or weed control at 20 g/ha: 90%

## CCNC(=O)c1c(OC)ccc(C(=O)Nc2nnnn2C)c1Cl [Example 1-355]
ABUTH [1]; [19]
  pest or weed control at 80 g/ha: 100%
ALOMY [2]
  pest or weed control at 80 g/ha: 90%
AMARE [3]; [20]
  pest or weed control at 20 g/ha: 100%
AMARE [3]; [21]
  pest or weed control at 80 g/ha: 100%
MATIN [5]; dosage 20 g/ha
  pest or weed control at 20 g/ha: 80%
MATIN [5]; dosage 80 g/ha
  pest or weed control at 80 g/ha: 100%
POLCO
  pest or weed control at 80 g/ha: 80%
SETVI [6]; [23]
  pest or weed control at 80 g/ha: 90%
VERPE [7]; dosage 80 g/ha
  pest or weed control at 80 g/ha: 100%
VIOTR [8]; [24]
  pest or weed control at 80 g/ha: 100%
ABUTH [9]
  pest or weed control at 5 g/ha: 80%
ABUTH [9]; dosage 20 g/ha
  pest or weed control at 20 g/ha: 100%
ALOMY [10]; [25]
  pest or weed control at 20 g/ha: 80%
AMARE [11]
  pest or weed control at 20 g/ha: 100%
ECHCG [12]; [26]
  pest or weed control at 20 g/ha: 90%
PHBPU; [27]
  pest or weed control at 20 g/ha: 80%
VERPE [15]; [28]
  pest or weed control at 20 g/ha: 90%
VIOTR [16]; Viola tricolor, 504 h, 20 g/ha
  pest or weed control at 20 g/ha: 100%

## CCn1nnnc1NC(=O)c1ccc(C(F)F)c(C(=O)NCCOC)c1Cl [Example 2-156]
ABUTH [1]; [29]
  Pre-emergence action against ABUTH (herbicidal activity): 100%
ABUTH [1]; dosage 20 g/ha, scored visually after 3 weeks vs untreated controls, 100% = plants have died, 0% = like control plants
  Pre-emergence action against ABUTH (herbicidal activity in percent): 100%
ALOMY [2]
  Pre-emergence action against ALOMY (herbicidal activity): 100%
AMARE [3]; [20]
  Pre-emergence action against AMARE in %: 100%
AMARE [3]; [29]
  Pre-emergence action against AMARE in %: 100%
ECHCG [4]
  Pre-emergence action against ECHCG in %: 100%
MATIN [5]; dosage 20 g/ha
  Pre-emergence action against MATIN in %: 100%
MATIN [5]; dosage 80 g/ha
  Pre-emergence action against MATIN in %: 100%
POLCO
  Pre-emergence action against POLCO in %: 90%
SETVI [6]; dosage 80 g/ha
  Pre-emergence action against SETVI in %: 100%
VERPE [7]; dosage 20 g/ha
  Pre-emergence action against VERPE in %: 80%
VERPE [7]; dosage 80 g/ha
  Pre-emergence action against VERPE in %: 100%
VIOTR [8]; dosage 80 g/ha
  Pre-emergence action against VIOTR in %: 100%
DIGSA [17]; dosage 20 g/ha
  Pre-emergence action against DIGSA in %: 100%
DIGSA [17]; dosage 80 g/ha
  Pre-emergence action against DIGSA in %: 100%
ABUTH [9]; dosage 20 g/ha
  Post-emergence action against ABUTH in %: 90%
ALOMY [10]; dosage 20 g/ha
  Post-emergence action against ALOMY in %: 90%
AMARE [11]
  Post-emergence action at 20 g/ha against AMARE in %: 90%
ECHCG [12]; dosage 5 g/ha
  Post-emergence action against ECHCG in %: 90%
ECHCG [12]; dosage 20 g/ha
  Post-emergence action against ECHCG in %: 90%
PHBPU; dosage 20 g/ha
  Post-emergence action against PHBPU in %: 90%
SETVI [14]; dosage 20 g/ha
  Post-emergence action against SETVI in %: 80%
VERPE [15]; 20 g/ha
  Post-emergence action against VERPE in %: 90%
VIOTR [16]; 20 g/ha
  Post-emergence action against VIOTR in %: 80%
DIGSA [18]
  Post-emergence action against DIGSA: 80%
